Data published in publication PMC7932521, “2-aminobenzimidazoles for leishmaniasis: From initial hit discovery to in vivo profiling” (PLoS Neglected Tropical Diseases, 2021).
Like-named read-outs stand apart in the source and are kept apart here.

What was measured:
[1] = molecular target: T1, H1 (Homo sapiens, UniProt P35367); experiment: Bioprofiling 6pt Ag H1 CHO; format: cell-based; conditions: agonist readout
T1 construct: expressed in transfected cells; host or cells: CHO
Method: (§1) The compounds were evaluated across a panel of 20 liability targets (37 functional assays) which included functional cell-based GPCRs and ion channels in both agonist and antagonist readout, measuring calcium flux and biochemical functional assays for nuclear hormone receptors and phosphodiesterases using TR-FRET format, in a 6 point 1:3 dilution dose series (maximum final concentration of 10 μM).

[2] = test system: Leishmania infantum MHOM/MA(BE)/67/ITMAP263 amastigotes; experiment: L. infantum intracellular amastigote assay in PMM; format: cell-based; conditions: for SI: selectivity index (CC50 / IC50): CC50 / L. infantum IC50; for IC50: read-out: L. infantum IC50
Summary of the method: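 Mouse peritoneal macrophages infected with hamster spleen-derived amastigotes (2 h, 37°C), then exposed to 4-fold dilutions from 64 μM (DMSO <1%) for 5 days at 37°C, 5% CO2. Burden scored microscopically after Giemsa staining as percent reduction vs untreated wells; IC50 as geometric mean of ≥2 experiments.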

[3] = molecular target: T2, D2L (Homo sapiens, UniProt P14416); experiment: Bioprofiling 6pt Antag D2L CHO; format: cell-based; conditions: antagonist readout vs Quinpirole
T2 construct: expressed in transfected cells; host or cells: CHO
Method: as §1

[4] = molecular target: T3, Opioid mu (Homo sapiens, UniProt P35372); experiment: Bioprofiling 6pt Ag Opioid mu CHO; format: cell-based; conditions: agonist readout
T3 construct: expressed in transfected cells; host or cells: CHO
Method: as §1

[5] = molecular target: T4, 5-HT2B (Homo sapiens, UniProt P41595); experiment: Bioprofiling 6pt Antag 5-HT2B CHO; format: cell-based; conditions: antagonist readout vs Serotonin (5-HT)
T4 construct: expressed in transfected cells; host or cells: CHO
Method: as §1

[6] = molecular target: T5, ETB (Homo sapiens, UniProt P24530); experiment: Bioprofiling 6pt Ag ETB CHO; format: cell-based; conditions: agonist readout
T5 construct: expressed in transfected cells; host or cells: CHO
T5 sequence (P24530 27-442): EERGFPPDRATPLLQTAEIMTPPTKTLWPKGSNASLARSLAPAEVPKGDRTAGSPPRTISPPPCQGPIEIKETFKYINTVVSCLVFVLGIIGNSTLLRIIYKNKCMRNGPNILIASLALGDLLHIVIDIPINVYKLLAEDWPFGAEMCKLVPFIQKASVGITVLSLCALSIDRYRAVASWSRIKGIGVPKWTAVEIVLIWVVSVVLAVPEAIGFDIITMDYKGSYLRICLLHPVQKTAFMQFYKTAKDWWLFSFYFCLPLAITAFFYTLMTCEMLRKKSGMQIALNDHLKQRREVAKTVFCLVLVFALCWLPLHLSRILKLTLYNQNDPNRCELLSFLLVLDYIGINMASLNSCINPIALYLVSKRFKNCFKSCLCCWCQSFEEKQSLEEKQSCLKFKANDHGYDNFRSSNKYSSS
Method: as §1

[7] = molecular target: T6, PPARgamma (Homo sapiens, UniProt P37231); experiment: Bioprofiling 6pt Ag PPARgamma; format: biochemical; conditions: agonist readout
T6 sequence (P37231 1-505): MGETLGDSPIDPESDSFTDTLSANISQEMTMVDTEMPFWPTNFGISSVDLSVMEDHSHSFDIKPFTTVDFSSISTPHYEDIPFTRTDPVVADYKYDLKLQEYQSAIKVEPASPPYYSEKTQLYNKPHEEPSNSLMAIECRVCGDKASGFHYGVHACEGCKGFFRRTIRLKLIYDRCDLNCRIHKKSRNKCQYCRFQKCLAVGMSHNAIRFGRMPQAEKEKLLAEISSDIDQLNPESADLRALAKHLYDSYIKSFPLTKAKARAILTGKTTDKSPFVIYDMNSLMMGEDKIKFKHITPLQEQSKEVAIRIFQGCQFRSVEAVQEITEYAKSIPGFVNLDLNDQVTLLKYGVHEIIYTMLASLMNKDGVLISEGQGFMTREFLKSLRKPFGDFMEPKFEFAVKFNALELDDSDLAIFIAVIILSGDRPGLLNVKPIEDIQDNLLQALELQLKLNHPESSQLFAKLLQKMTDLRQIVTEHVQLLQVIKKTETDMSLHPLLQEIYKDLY
Method: as §1

[8] = molecular target: T7, Beta1 (Homo sapiens, UniProt P08588); experiment: Bioprofiling 6pt Ag Beta1 CHO; format: cell-based; conditions: agonist readout
T7 construct: expressed in transfected cells; host or cells: CHO
Method: as §1

[9] = molecular target: T1, H1; experiment: Bioprofiling 6pt Antag H1 CHO; format: cell-based; conditions: antagonist readout vs Histamine
Method: as §1

[10] = molecular target: T3, Opioid mu; experiment: Bioprofiling 6pt Antag Opioid mu CHO; format: cell-based; conditions: antagonist readout vs DAMGO
Method: as §1

[11] = molecular target: T8, Alpha2A (Homo sapiens, UniProt P08913); experiment: Bioprofiling 6pt Ag Alpha2A CHO; format: cell-based; conditions: agonist readout
T8 construct: expressed in transfected cells; host or cells: CHO
T8 sequence (P08913 1-465): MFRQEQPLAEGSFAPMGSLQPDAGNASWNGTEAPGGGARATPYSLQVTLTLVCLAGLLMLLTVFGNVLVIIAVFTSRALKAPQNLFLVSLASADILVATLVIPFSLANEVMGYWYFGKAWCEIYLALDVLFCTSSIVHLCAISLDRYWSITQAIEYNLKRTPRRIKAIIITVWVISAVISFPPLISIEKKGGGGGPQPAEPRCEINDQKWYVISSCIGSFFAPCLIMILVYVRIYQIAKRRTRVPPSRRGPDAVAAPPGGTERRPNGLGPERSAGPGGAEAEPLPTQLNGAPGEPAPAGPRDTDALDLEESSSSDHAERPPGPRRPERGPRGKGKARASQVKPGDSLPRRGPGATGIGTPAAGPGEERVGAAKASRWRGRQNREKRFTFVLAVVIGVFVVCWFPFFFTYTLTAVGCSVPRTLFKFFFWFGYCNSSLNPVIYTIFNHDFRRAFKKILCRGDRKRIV
Method: as §1

[12] = molecular target: PDE4B2 (Homo sapiens, UniProt Q07343); experiment: Bioprofiling 6pt Antag PDE4B2; format: biochemical; conditions: substrate cAMP
Method: as §1

[13] = molecular target: T9, 5-HT2A (Homo sapiens, UniProt P28223); experiment: Bioprofiling 6pt Antag 5-HT2A CHO; format: cell-based; conditions: antagonist readout vs Serotonin (5-HT)
T9 construct: expressed in transfected cells; host or cells: CHO
Method: as §1

[14] = Leishmania infantum, 120 h, intracellular amastigotes in PMM, 5 days

T7 sequence (P08588 whole entry): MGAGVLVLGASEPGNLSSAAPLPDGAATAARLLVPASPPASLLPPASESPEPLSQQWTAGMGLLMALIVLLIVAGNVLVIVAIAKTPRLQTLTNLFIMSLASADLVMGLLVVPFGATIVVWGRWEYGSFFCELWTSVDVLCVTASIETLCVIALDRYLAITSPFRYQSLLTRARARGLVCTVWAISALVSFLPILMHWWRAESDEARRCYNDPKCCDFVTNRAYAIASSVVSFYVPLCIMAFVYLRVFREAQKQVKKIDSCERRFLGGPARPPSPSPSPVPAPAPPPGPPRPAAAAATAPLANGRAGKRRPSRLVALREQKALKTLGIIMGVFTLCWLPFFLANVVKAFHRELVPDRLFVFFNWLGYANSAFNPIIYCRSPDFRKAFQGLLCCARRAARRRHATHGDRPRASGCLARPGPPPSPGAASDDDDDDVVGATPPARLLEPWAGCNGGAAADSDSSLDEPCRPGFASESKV
T3 sequence (P35372 whole entry): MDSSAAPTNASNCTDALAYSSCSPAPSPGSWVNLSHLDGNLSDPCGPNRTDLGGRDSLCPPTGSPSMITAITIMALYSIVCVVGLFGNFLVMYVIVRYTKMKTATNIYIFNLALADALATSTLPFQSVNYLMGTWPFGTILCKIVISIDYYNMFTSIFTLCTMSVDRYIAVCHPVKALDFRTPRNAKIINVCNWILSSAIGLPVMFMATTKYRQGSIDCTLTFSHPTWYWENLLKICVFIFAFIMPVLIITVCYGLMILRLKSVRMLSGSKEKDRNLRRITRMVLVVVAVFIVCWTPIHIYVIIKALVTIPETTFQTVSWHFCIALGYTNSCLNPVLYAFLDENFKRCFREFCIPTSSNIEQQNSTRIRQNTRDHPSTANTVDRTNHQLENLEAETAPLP
PDE4B2, sequence (Q07343 1-564 isoform Q07343-2): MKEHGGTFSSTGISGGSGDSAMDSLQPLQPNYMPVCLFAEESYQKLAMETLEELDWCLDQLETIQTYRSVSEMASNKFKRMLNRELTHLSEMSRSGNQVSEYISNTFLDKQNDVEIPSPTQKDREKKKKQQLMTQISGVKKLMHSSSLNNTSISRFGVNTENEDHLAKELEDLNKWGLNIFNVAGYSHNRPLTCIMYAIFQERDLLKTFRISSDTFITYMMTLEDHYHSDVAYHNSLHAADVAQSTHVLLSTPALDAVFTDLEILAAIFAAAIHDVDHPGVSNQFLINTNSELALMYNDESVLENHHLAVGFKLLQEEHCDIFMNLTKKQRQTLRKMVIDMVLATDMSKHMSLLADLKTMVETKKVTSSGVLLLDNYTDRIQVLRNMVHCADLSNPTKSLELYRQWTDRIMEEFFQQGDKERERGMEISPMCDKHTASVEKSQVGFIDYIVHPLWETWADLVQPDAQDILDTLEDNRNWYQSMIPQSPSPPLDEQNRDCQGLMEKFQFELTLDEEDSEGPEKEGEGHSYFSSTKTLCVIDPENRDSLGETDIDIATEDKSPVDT
T9 sequence (P28223 whole entry): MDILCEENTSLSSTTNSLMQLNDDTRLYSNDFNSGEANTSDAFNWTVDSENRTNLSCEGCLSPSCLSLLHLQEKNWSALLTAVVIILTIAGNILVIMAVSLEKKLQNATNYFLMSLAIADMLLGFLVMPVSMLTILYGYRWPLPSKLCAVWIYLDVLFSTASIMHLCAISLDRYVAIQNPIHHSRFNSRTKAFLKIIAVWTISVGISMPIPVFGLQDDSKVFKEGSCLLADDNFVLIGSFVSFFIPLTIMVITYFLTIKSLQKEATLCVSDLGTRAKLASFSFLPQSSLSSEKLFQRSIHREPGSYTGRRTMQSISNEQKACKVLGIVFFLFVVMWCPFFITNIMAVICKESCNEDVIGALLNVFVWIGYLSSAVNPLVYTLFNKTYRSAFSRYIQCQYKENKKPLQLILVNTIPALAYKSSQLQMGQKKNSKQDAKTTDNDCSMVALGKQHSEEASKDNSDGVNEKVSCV
T2 sequence (P14416 whole entry): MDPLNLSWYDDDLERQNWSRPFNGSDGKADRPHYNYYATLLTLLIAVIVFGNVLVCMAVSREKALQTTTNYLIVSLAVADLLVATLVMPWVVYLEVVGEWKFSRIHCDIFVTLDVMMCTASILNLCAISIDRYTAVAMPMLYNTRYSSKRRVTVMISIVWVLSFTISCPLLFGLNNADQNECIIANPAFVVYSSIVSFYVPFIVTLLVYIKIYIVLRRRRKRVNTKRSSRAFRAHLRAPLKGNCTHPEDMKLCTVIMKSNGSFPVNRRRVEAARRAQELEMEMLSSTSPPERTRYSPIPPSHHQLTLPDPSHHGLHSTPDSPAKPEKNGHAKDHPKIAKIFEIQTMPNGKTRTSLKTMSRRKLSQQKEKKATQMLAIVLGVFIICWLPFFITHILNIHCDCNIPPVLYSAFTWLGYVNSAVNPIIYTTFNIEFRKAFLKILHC
T1 sequence (P35367 whole entry): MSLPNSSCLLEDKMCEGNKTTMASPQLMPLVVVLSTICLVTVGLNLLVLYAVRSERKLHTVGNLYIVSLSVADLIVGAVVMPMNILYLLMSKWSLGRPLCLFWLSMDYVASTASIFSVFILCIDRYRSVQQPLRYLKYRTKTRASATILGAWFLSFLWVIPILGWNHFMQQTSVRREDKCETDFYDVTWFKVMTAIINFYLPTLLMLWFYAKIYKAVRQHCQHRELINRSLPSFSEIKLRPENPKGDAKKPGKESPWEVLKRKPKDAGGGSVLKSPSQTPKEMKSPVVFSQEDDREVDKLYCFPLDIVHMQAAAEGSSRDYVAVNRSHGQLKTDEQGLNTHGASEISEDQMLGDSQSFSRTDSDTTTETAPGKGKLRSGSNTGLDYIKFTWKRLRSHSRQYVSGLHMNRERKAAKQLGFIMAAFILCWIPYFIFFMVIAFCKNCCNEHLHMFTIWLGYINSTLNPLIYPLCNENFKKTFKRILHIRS
T4 sequence (P41595 whole entry): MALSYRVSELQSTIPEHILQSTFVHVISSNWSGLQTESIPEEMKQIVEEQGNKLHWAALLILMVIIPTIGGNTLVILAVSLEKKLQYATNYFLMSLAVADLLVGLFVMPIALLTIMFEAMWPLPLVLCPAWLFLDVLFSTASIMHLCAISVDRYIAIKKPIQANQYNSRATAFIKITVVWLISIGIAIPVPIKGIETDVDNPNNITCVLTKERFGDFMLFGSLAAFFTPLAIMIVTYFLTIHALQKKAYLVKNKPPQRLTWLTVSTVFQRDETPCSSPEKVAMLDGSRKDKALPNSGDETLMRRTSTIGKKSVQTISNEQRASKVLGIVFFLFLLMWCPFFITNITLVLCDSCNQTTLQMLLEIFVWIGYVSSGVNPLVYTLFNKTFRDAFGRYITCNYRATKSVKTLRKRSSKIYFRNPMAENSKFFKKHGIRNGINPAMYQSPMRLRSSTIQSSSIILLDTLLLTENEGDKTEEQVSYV

Row | SMILES | EC50 [1] [µM] | SI: selectivity index (CC50 / IC50) [2] | IC50 [2, 14] [µM] | IC50 ([2]; Leishmania infantum, S1 Data) [µM] | IC50 [3] [µM] | EC50 [4] [µM] | IC50 [5] [µM] | EC50 [6] [µM] | EC50 [7] [µM] | EC50 [8] [µM] | IC50 [9] [µM] | IC50 [10] [µM] | EC50 [11] [µM] | IC50 [12] [µM] | IC50 [13] [µM] | potency compared to initial hit 1 ([2]; L. infantum IC50) [fold] | potency compared to parent compound 30 ([2]; L. infantum IC50) [fold] | IC50 ([2]; intracellular amastigotes in PMM, 5 days) [µM]
1 | COc1ccc(C(=O)Nc2nc3ccc(C#N)cc3n2CC(F)(F)F)cn1 [Compound 43, O=C(c1ccc(OC)nc1)Nc2nc(ccc(C#N)c3)c3n2CC(F)(F)F] | > 10 | 5 | 7 | 6.95 | > 10 | > 10 | > 10 | > 10 | > 10 | > 10 | > 10 | > 10 | > 10 | > 10 | > 10 | – | – | –
2 | N#Cc1ccc2nc(NC(=O)c3ccc(C(F)(F)F)nc3)n(CC(F)(F)F)c2c1 [Compound 45, O=C(c1ccc(C(F)(F)F)nc1)Nc2nc(ccc(C#N)c3)c3n2CC(F)(F)F] | > 10 | 2 | 4.3 | 4.28 | > 10 | > 10 | > 10 | > 10 | > 10 | > 10 | > 10 | > 10 | > 10 | > 10 | > 10 | – | – | –
3 | N#Cc1ccc2nc(NC(=O)c3ccnc(C(F)(F)F)c3)n(CC(F)(F)F)c2c1 [Compound 44, O=C(c1ccnc(C(F)(F)F)c1)Nc2nc(ccc(C#N)c3)c3n2CC(F)(F)F] | > 10 | 5 | 0.84 | – | > 10 | > 10 | > 10 | > 10 | > 10 | > 10 | > 10 | > 10 | > 10 | > 10 | > 10 | 10 to 20 | – | –
4 | Cn1nccc1C(=O)Nc1nc2ccc(C#N)cc2n1CC(C)(C)C [Compound 29, O=C(Nc1n(CC(C)(C)C)c(c2n1)cc(C#N)cc2)c3n(C)ncc3] | > 10 | 7 | 4.1 | 4.12 | > 10 | > 10 | > 10 | > 10 | > 10 | > 10 | > 10 | > 10 | > 10 | > 10 | > 10 | – | – | –
5 | Cn1nccc1C(=O)Nc1nc2ccc(C#N)cc2n1CC(F)(F)F [Compound 30, O=C(c1ccnn1C)Nc2nc(ccc(C#N)c3)c3n2CC(F)(F)F] | > 10 | 14 | 2.2 | 2.22 | > 10 | > 10 | > 10 | > 10 | > 10 | > 10 | > 10 | > 10 | > 10 | > 10 | > 10 | – | – | –
6 | Cn1nc(C(F)(F)F)cc1C(=O)Nc1nc2ccc(C#N)cc2n1CC(F)(F)F [Compound 39, O=C(c1cc(C(F)(F)F)nn1C)Nc2nc(ccc(C#N)c3)c3n2CC(F)(F)F] | > 10 | 2 | 0.5 | – | > 10 | > 10 | > 10 | > 10 | > 10 | > 10 | > 10 | > 10 | > 10 | > 10 | > 10 | 10 to 20 | 4 | 0.53
